Measurements from patent US7781423B2, “Compounds to promote regeneration of bone marrow” (priority 2007, dated 2010).

Experiments:
[1] = Solubility in water
[2] = tested on: healthy mice; experiment: Toxicity in healthy mice; assay type: in vivo; details: for well tolerated maximal dose: mice weighing about 25 g
Method: Accordingly, a well tolerated maximal dose for CCompound1 or CCompound3 in mice (weighing about 25 g) is […] which corresponds to a dose of 4.6 mg/kg. Therapeutically effective concentrations of CC compounds in humans will exert significant promoting effects on bone marrow regeneration without causing toxicity in other normal healthy tissues.

[3] = tested on: lethally irradiated mice that received bone marrow transplantation; experiment: Blood profile after bone marrow transplantation following lethal irradiation; assay type: in vivo, C57B1 mice; details: for Platelets / RBC / WBC: CCompound1 4.5 mg per kg i.p. daily, day -3 to day +3
Method: Twelve week old female C57B1 mice were used for the experiments. Each drug was administered intraperitoneally once a day for 5 consecutive days. In the second, third, fourth and fifth groups, mice were administered 120 mg/kg of cyclophosphamide (CP). In a third group, mice were also administered 4.5 mg/kg of CCompound1. In a fourth group, mice were also administered 4.5 mg/kg of CCompound3. In a fifth group, mice were also administered 2.0 mg/kg of CCompound26. In the first group, mice received no treatment. Each group included 5 animals. After 3 hours of the last treatments (on day 5), blood samples were collected from the ocular venous plexus of ether-anesthetized mice by retro-orbital venipuncture in heparanized tubes. Complete cell counts (RBC, red blood cell; WBC, white blood cell; PTL, platelet) were determined with a Sysmex F-800 hematology analyzer (To a Medical Electronics Co. LTD, Kobe, Japan). All data shown in Table 2 are the average of 5 independent determinations.
(§1) In this experiment the goal was to determine if CCompound1 can enhance expansion of transplanted bone marrow cells infused after applying a lethal dose of whole body irradiation (which reduces the number of bone marrow cells by more than 90%). C57B1 female mice (10-14 weeks old) were subjected to 900 cGy whole body irradiation from a ^137Cesium source which was followed within 6 hours by infusion of one million donor nucleated bone marrow cells by tail vein injection. Starting 3 days before irradiation, animals received daily 4.5 mg per kg of CCompound1 via intraperitoneal injection; this treatment also was provided on day 0 and once daily for the subsequent 3 days after irradiation. In another group, mice were injected only with physiological saline.
(§2) Bone marrow cells were collected on day 0 from non-irradiated animals as well as on days 6, 14, 28 and 42 after irradiation and bone marrow transplantation. Nucleated bone marrow cells were quantified and CFU-GM assay was performed as described in Example 3 while blood profiling was performed as described in Example 1. For each group, on the indicated days bone marrow and blood samples were collected from 3 animals. Each value presented in Table 5 and Table 6 represents the mean±st. dev. of 3 samples (derived from 3 animals).

[4] = tested on: transplanted bone marrow cells; experiment: Bone marrow regeneration from transplanted bone marrow cells after lethal irradiation (BM cells, CFU-GM); assay type: in vivo, C57B1 mice; details: for CFU-GM per femur / CFU-GM/10^5 nucleated BM cells: CCompound1 4.5 mg per kg i.p. daily, day -3 to day +3
Method: C57B1 female (10-14 weeks old) mice received sublethal (250 cGy) whole body irradiation from a ^137Cesium source (day 0). Starting three days before irradiation, animals received daily 4.5 mg per kg of CCompound1 via intraperitoneal injection; this treatment also was provided on day 0 and once daily for three days subsequent to irradiation. In another group, mice were injected only with physiological saline. The subsequent procedure has been reported in Vas, V., Fajka-Boja, R., Ion, G. A., Dudics, V., Monostori, E. and Uher, F., “Biphasic effect of recombinant Galectin-1 on the growth and death of early hematopoietic cells,” Stem Cells, 23, 279-287 (2005). Briefly, bone marrow was flushed from the femurs with Iscove's modified Dulbecco's medium (Gibco BRL, Gaithersburg, Md., USA), and after standard erythrocyte lysis, nucleated cells were counted using a hemocytometer. Samples were taken on days 0, 1, 3, and 10. To measure the formation of the granulocyte-macrophage colony-forming units (CFU-GM), a semisolid colony-forming cell assay was used. Nucleated bone marrow cells (isolated on the days as indicated above) were plated in 35-mm Petri dishes (Costar, Cambridge, Mass., USA) in Iscove's modified Dulbecco's medium supplemented with 1% methylcellulose, 30% horse serum (Gibco), 10% WEHI-3B conditioned medium as a source of growth factors, 4 mM L-glutamine, 0.25 mM a-thioglycerol (Gibco), 1% deionized bovine serum albumine (Sigma), and antibiotics (Gibco). Cells were cultured at 37° C. in 5% CO2/95% air atmosphere and colonies were counted on day 7 in the same dish. Colonies containing at least 50 cells were counted which is a generally accepted value in the literature. Each value represents the mean±st. dev. of 9 samples (3 parallel dishes from each animal).
as §1, §2

[5] = single 450 μmole (about 4.6 mg/kg) or daily 400 μmole for 5 consecutive days
[6] = after bone marrow transplantation
[7] = day 6 after 900 cGy irradiation and bone marrow transplantation
[8] = day 14 after 900 cGy irradiation and bone marrow transplantation
[9] = day 28 after 900 cGy irradiation and bone marrow transplantation
[10] = day 42 after 900 cGy irradiation and bone marrow transplantation

Cc1c(OCC(O)C[N+](C)(C)C)cc2c(=O)c3ccccc3sc2c1C.[Cl-] (stereo not drawn) [CCcompound1, [3-(3,4-Dimethyl-9-oxo-9H-thioxanthen-2-yloxy)-2-hydroxypropyl]trimethyl-ammonium chloride]
solubility in water [1]: soluble in water | well tolerated maximal dose [2]: 450 μmole/animal | well tolerated maximal dose ([2]; corresponds to 450 μmole/animal): 4.6 mg/kg | change in the composition of various blood constituents [2, 5]: did not cause any significant change | pathological alterations in the liver, brain, kidney, heart, spleen, intestine, and lung [2, 5]: did not induce significant pathological alterations | time to recover platelet count similar to about 100,000 per 1 μl from transplanted bone marrow stem cells [3, 6]: less than 6 days | time to recover white blood cell count similar to 2,500 per 1 μl from transplanted bone marrow stem cells [3, 6]: 9 to 11 days | time to about 50% recovery of white blood cells ([3]; after lethal irradiation and bone marrow transplantation): about 14 days | Platelets [3, 7]: 243 ± 19 ×10^3/mm^3 | RBC [3, 7]: 4.8 ± 1.2 ×10^6/mm^3 | WBC [3, 7]: 1.6 ± 0.3 ×10^3/mm^3 | Platelets [3, 8]: 438 ± 112 ×10^3/mm^3 | RBC [3, 8]: 9.1 ± 1.1 ×10^6/mm^3 | WBC [3, 8]: 3.3 ± 0.4 ×10^3/mm^3 | Platelets [3, 9]: 716 ± 138 ×10^3/mm^3 | RBC [3, 9]: 10.9 ± 1.3 ×10^6/mm^3 | WBC [3, 9]: 5.2 ± 0.8 ×10^3/mm^3 | Platelets [3, 10]: 776 ± 112 ×10^3/mm^3 | RBC [3, 10]: 11.0 ± 0.7 ×10^6/mm^3 | WBC [3, 10]: 6.6 ± 0.4 ×10^3/mm^3 | CFU-GM per femur [4, 7]: 134.9 | CFU-GM/10^5 nucleated BM cells [4, 7]: 44.8 ± 5.1 | level of bone marrow re-population in the femur, treated versus untreated animals ([4]; day 6 following transplantation): about 5.3 fold | CFU-GM per femur [4, 8]: 650.4 | CFU-GM/10^5 nucleated BM cells [4, 8]: 81.2 ± 5.3 | level of bone marrow re-population in the femur, treated versus untreated animals ([4]; day 14 following transplantation): ~2.9 fold | CFU-GM per femur [4, 9]: 1,286.4 | CFU-GM/10^5 nucleated BM cells [4, 9]: 125.5 ± 9.1 | CFU-GM per femur [4, 10]: 992.4 | CFU-GM/10^5 nucleated BM cells [4, 10]: 71.5 ± 5.3
